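Briefly, cells in 96-well plates were exposed to five compound concentrations for 48 h, and endpoints were estimated by linear interpolation. At the GI50, growth is halved. TGI: concentration producing complete growth inhibition.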
How the values were obtained:
Assay in all cases: NCI-60 cell line screen, 48 h
[1] = tested on: NCI-H522 lung
[2] = tested on: NCI-H23 lung
[3] = tested on: SF-295 CNS
[4] = tested on: EKVX NSCLC
[5] = tested on: SK-MEL-5 melanoma
[6] = tested on: 786-0 renal
[7] = tested on: IGROV1 ovarian
[8] = tested on: UO-31 renal
[9] = tested on: PC-3 prostate
[10] = tested on: CAKI-1 renal
[11] = tested on: HL-60(TB) leukemia
[12] = tested on: HCT-15 colon
[13] = tested on: OVCAR-4 ovarian
[14] = tested on: HOP-92 NSCLC
[15] = tested on: SK-MEL-28 melanoma
[16] = tested on: HT29 colon
[17] = tested on: HOP-62 NSCLC
[18] = tested on: MDA-MB-231 breast
[19] = tested on: K-562 leukemia
[20] = tested on: HCC-2998 colon
[21] = tested on: OVCAR-3 ovarian
[22] = tested on: COLO 205 colon
[23] = tested on: SK-MEL-2 melanoma
[24] = tested on: MDA-MB-435
[25] = tested on: UACC-62 melanoma
[26] = tested on: SK-OV-3 ovarian
[27] = tested on: NCI/ADR-RES ovarian
[28] = tested on: SF-539 CNS
[29] = tested on: DU-145 prostate
[30] = tested on: NCI-H460 lung
[31] = tested on: NCI-H226 lung
[32] = tested on: ACHN renal
[33] = tested on: SNB-75 CNS
[34] = tested on: MALME-3M melanoma
[35] = tested on: LOX IMVI melanoma
[36] = tested on: SNB-19 CNS
[37] = tested on: A549 NSCLC
[38] = tested on: T-47D breast
[39] = tested on: RXF 393 renal
[40] = tested on: UACC-257 melanoma
[41] = tested on: RPMI-8226 leukemia
[42] = tested on: SF-268 CNS
[43] = tested on: SR leukemia
[44] = tested on: OVCAR-8 ovarian
[45] = tested on: U251 CNS
[46] = tested on: HS 578T breast
[47] = tested on: TK-10 renal
[48] = tested on: SW-620 colon
[49] = tested on: CCRF-CEM leukemia
[50] = tested on: MOLT-4 leukemia
[51] = tested on: M14 melanoma
[52] = tested on: KM12 colon
[53] = tested on: A498 renal
[54] = tested on: BT-549 breast
[55] = tested on: HCT-116 colon
[56] = tested on: MCF7 breast
[57] = tested on: SN12C renal
[58] = tested on: OVCAR-5 ovarian

## CNCCOc1nc2c3cnccc3cc(-c3cc(OC)c(OC)c(OC)c3)c2c2ccncc12
[1]
  GI50: 66.6 nM
  TGI: 661 nM
[2]
  GI50: 27.8 nM
  TGI: 161 nM
[3]
  GI50: 21.1 nM
  TGI: 101 nM
[4]
  GI50: 78.2 nM
  TGI: 432 nM
[5]
  GI50: 28.8 nM
  TGI: 144 nM
[6]
  GI50: 19.4 nM
  TGI: 175 nM
[7]
  GI50: 28.1 nM
  TGI: 357 nM
[8]
  GI50: 30.2 nM
  TGI: 156 nM
[9]
  GI50: 47.1 nM
  TGI: 1120 nM
[10]
  GI50: 39 nM
  TGI: 292 nM
[11]
  GI50: < 15.3 nM
  TGI: 68.5 nM
[12]
  GI50: 46.7 nM
  TGI: 2190 nM
[13]
  GI50: 161 nM
  TGI: 749 nM
[14]
  GI50: 16.8 nM
  TGI: 100 nM
[15]
  GI50: 125 nM
  TGI: 525 nM
[16]
  GI50: 37.2 nM
  TGI: 1070 nM
[17]
  GI50: 22.4 nM
  TGI: 166 nM
[18]
  GI50: 76.5 nM
  TGI: 1180 nM
[19]
  GI50: 29.4 nM
  TGI: 10100 nM
[20]
  GI50: 45.4 nM
  TGI: 213 nM
[21]
  GI50: 90.6 nM
  TGI: 464 nM
[22]
  GI50: 57.5 nM
  TGI: 698 nM
[23]
  GI50: 264 nM
  TGI: 683 nM
[24]
  GI50: 115 nM
  TGI: 327 nM
[25]
  GI50: 27 nM
  TGI: 169 nM
[26]
  GI50: 32.3 nM
  TGI: 185 nM
[27]
  GI50: 344 nM
  TGI: 2090 nM
[28]
  GI50: 43.8 nM
  TGI: 225 nM
[29]
  GI50: 22 nM
  TGI: 167 nM
[30]
  GI50: < 10 nM
  TGI: 103 nM
[31]
  GI50: 54 nM
  TGI: 370 nM
[32]
  GI50: 15 nM
  TGI: 59.8 nM
[33]
  GI50: 30.4 nM
  TGI: 162 nM
[34]
  GI50: 39.2 nM
  TGI: 194 nM
[35]
  GI50: 13.1 nM
  TGI: 94.4 nM
[36]
  GI50: 25.3 nM
  TGI: 349 nM
[37]
  GI50: 10 nM
  TGI: 101 nM
[38]
  GI50: 29.6 nM
  TGI: 480 nM
[39]
  GI50: 46.9 nM
  TGI: 188 nM
[40]
  GI50: 130 nM
  TGI: 728 nM
[41]
  GI50: 22.9 nM
  TGI: 113 nM
[42]
  GI50: 33 nM
  TGI: 623 nM
[43]
  GI50: < 10 nM
[44]
  GI50: 41.8 nM
  TGI: 466 nM
[45]
  GI50: 24.1 nM
  TGI: 523 nM
[46]
  GI50: 139 nM
  TGI: 747 nM
[47]
  GI50: 68.6 nM
  TGI: 366 nM
[48]
  GI50: 24.3 nM
  TGI: 1700 nM
[49]
  GI50: < 13 nM
  TGI: 1100 nM
[50]
  GI50: < 10 nM
  TGI: 47.8 nM
[51]
  GI50: 23.3 nM
  TGI: 147 nM
[52]
  GI50: 53.6 nM
  TGI: 2520 nM
[53]
  GI50: 47.8 nM
  TGI: 163 nM
[54]
  GI50: 103 nM
  TGI: 613 nM
[55]
  GI50: < 14.7 nM
  TGI: 175 nM
[56]
  GI50: < 10 nM
  TGI: 275 nM
[57]
  GI50: 19.9 nM
  TGI: 87.2 nM
[58]
  GI50: 40.3 nM
  TGI: 426 nM

Source: PubChem BioAssay (NCI)
